# Reference: paper PMC7887336, “Altered functional properties of the codling moth Orco mutagenized in the intracellular loop-3” (Scientific Reports, 2021)
# Values joined by “and” are separate entries in the source; they are usually repeats but may differ in a detail not shown here. Identical values can stand only once.
# How the values were obtained:
# CpomOrco^Q417H [1] = target: T1, CpomOrco^Q417H (Cydia pomonella, UniProt H9A5M2, Q417H); experiment: Calcium imaging (Fluo-4) of HEK293A cells transfected with mutagenized CpomOrco^Q417H, VUAA1 stimulation; assay type: cell-based; details: for EC50: EC50, HEK293A; for Hill coefficient / maximum response (Hill fit of calcium response amplitudes): HEK293A
# T1 sequence (H9A5M2 entry or part of it Q417H): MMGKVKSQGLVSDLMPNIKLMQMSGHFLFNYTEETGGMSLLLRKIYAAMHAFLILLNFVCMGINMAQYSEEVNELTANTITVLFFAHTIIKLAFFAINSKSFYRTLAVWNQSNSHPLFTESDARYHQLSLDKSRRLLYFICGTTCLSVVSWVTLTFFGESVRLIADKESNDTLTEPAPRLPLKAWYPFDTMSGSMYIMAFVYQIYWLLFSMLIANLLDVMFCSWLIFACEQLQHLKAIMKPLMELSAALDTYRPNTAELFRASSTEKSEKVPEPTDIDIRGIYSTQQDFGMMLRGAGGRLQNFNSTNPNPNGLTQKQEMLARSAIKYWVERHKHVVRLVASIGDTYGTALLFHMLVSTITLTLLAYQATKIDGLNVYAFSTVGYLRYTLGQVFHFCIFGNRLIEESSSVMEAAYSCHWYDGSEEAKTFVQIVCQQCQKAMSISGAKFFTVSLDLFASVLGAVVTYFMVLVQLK
# Method: (§1) HEK293 cells lines (HEK293A/HEK293T) were grown in HEK cell media [Dulbecco's modified Eagle's medium containing 10% fetal bovine serum (MP Biomedicals, Solon, OH, USA), 2.0 mM L-glutamine, and 100 µg/mL penicillin/streptomycin (Invitrogen)] at 37 °C and 5% CO2. To test transient expression of wild type CpomOrco and CpomOrco^Q417H variant for calcium imaging and patch-clamp recording, 35-mm petri dishes containing semi-confluent HEK293A cells were transiently transfected. Cells were transfected with 0.6 µg of pcDNA40-DEST carrying the coding sequence of the CpomOrco variant (depending on the experiments). To report expression for calcium imaging experiments, 0.6 µg of a separate plasmid DNA [pEBFP2-Nuc, a gift from Robert Campbell (Addgene plasmid # 1489352)] carrying the coding sequence for a blue fluorescent protein (EBFP) was co-transfected. To report expression in patch-clamp recordings, 1.0 µg of a separate plasmid DNA (pXOOM, Clontech, Mountain View, CA, USA) carrying the coding sequence for a green fluorescent protein (GFP) was co-transfected. Expressions of fluorescent reporter genes were under the regulation of the same promoter for Cpom-genes (CMV). For specific experiments, co-transfections were conducted combining an additional 1.2 µg of pcDNA40-DEST/CpomOR3 or pcDNA40-DEST/CpomOR6a, as we previously described. Co-transfections with CpomOR3 were performed for dose–response experiments to pear ester: CpomOR3 was co-expressed with CpomOrco variants by the use of HEK293T (Fig. 3b); given the reported functional co-expression data of the CpomOrco + OR3 heteromers by the use of these specific cells. In brief, transfection DNAs were dissolved in 100 µL sterile DMEM, mixed with 3.0 µL Calfectin (SignaGen, Rockville, MD, USA) following the recommended protocol. Transfections were conducted overnight for up to 18 h, HEK cell media was replaced with 2.0 mL fresh media to incubate cells at 37 °C for up to 6–8 h, at which point part of the cell culture was spread in the middle of a 35-mm plate as individual cells or small clusters and rinsed at the sides with 2.0 mL fresh HEK media. After splitting, cells were allowed to recover for at least 1 day prior to calcium imaging.
# Activation of HEK293 cells transfected with CpomOrco variants was tested using the same procedures we previously described. Petri dishes were incubated for 1 h at room temperature in 1.0 mL HEK Ca^++ Ringer (mM: 140 NaCl, 5.0 KCl, 2.0 CaCl2, 10 HEPES, pH 7.4) containing the fluorescent calcium indicator Fluo-4AM (Invitrogen) at 5–15 µM prepared with 0.2–0.06% Pluronic F-127 (Invitrogen). To monitor intracellular pH, HEK293A cells were loaded with 10.0 µL BCECF dye (Anaspec, Fremont, CA).
# As reported in Cattaneo et al.[14], the buffer was removed after incubation, cells were rinsed with 4.0 mL fresh HEK Ca^++ Ringer and placed on the stage of an inverted microscope (Olympus IX-71, Olympus Corp., Tokyo, Japan) equipped with a cooled CCD camera (ORCA R2, Hamamatsu, Hamamatsu City, Japan). Cells were continuously superfused with Ca^++ Ringer using two gravity fed perfusion contours. The […] contour washing the cells (~ 250 µL/min) was switched rapidly to the stimulus contour using a multi-channel rapid solution changer (RSC-160, Bio-Logic, Claix, France) under the software control of Clampex 9 (Molecular Devices, Sunnyvale, CA, USA).
# Fluorescence imaging was performed using settings optimized for Imaging Workbench 6 software (INDEC BioSystems, Santa Clara, CA, USA)[14]. The non-responsive cells were not included in these analyses. Each cell was assigned a region of interest (ROI) and changes in fluorescence intensity within each ROI were measured and expressed as the fractional change in fluorescence intensity (dF). Stored time series image stacks were analysed off-line using Imaging Workbench 6, Clampfit 10.5 (Molecular Devices) and SigmaPlot 11 (Systat Software Inc., San Jose, CA, USA). Dose–response curves were approximated using Hill equation. […]
# CpomOrco^Q417H [2] = target: T1, CpomOrco^Q417H; experiment: Whole-cell voltage-clamp recordings of HEK293A cells transfected with CpomOrco^Q417H, VUAA1; assay type: cell-based; details: for EC50: EC50 (K1/2)
# Method: as §1
# Electrophysiological experiments were performed according with the same procedures we previously described. Patch pipettes were fabricated from borosilicate capillary glass (BF150-86–10, Sutter Instrument, CA, USA) using a Flaming-Brown micropipette puller (P-87, Sutter Instrument). Only patches with initial cell-attached seal resistance estimated higher than 1.0 GOhms were used in the experiments. Intracellular (pipette) solution for whole-cell experiments was KCl 140 mM, EGTA 1 mM, Hepes 5 mM, MES 5 mM, pH 8.0 or pH 5.5 (depending on the experiment) adjusted with either NaOH or HCl, standard Na^+ 140 mM. bath solution was usually NaCl 140 mM, EGTA 0.1 mM, Hepes 10 mM, pH 7.4 (adjusted with Tris-base or NaOH). VUAA1 doses (0–1000 µM) were added to the extracellular test solutions.
# As described in methods of Cattaneo et al.[14], GFP positive HEK293A cells were visualized using either an Axiovert 100 inverted microscope (Carl Zeiss, Inc., München, Germany) equipped with a mercury vapour compressed-arc lamp (HBO100) coupled to widefield fluorescence filter set (1114–459, Carl Zeiss, Inc.) or Olympus IX-71 inverted microscope described above (Olympus Corp.). The Orco channel-mediated currents were investigated using whole-cell patch-clamp recordings. The currents were measured with a 200B patch-clamp amplifier (Molecular Devices) and a digital interface (Digidata 1320A, Molecular Devices), low pass filtered at 5.0 kHz, sampled at 1–2 kHz. Analysis of the data was carried out using pCLAMP 9.2/10.5 software (Molecular Devices) and SigmaPlot 11 (Systat Software Inc). […]
# [3] = after 30 min incubation at low pHe = 4.7
# [4] = intracellular pH = 5.5, extracellular pH 7.4, -50 mV
# [5] = intracellular pH = 8.0, extracellular pH 7.4, -50 mV
smiles,measurement,setting,value
"CCc1ccc(NC(=O)CSc2nnc(-c3cccnc3)n2CC)cc1 [VUAA1, acetamide,N-(4-ethylphenyl)-2-[[4-ethyl-5-(3-pyridinyl)-4H-1,2,4-triazol-3-yl]thio]-]",EC50,CpomOrco^Q417H [1]; [3],~263 µM
same,EC50,"CpomOrco^Q417H [1]; control pH conditions (pH 7.4), Hill fit",~261 µM and ~262 µM
same,Hill coefficient,CpomOrco^Q417H [1]; [3],~ 2.2 ± 0.5
same,maximum response (Hill fit of calcium response amplitudes),"CpomOrco^Q417H [1]; after 30 min incubation at low pHe = 4.7, n = 63, constraints applied to fit",~ 1.8 ± 0.2 ∆F and 1.8 ∆F
same,Hill coefficient,CpomOrco^Q417H [1]; control pH conditions (pH 7.4),~ 2.1 ± 1.9
same,maximum response (Hill fit of calcium response amplitudes),"CpomOrco^Q417H [1]; control pH conditions (pH 7.4), N = 94 cells",~ 3.9 ∆F and ~ 3.9 ± 1.3 ∆F and 3.9 ∆F
same,EC50,CpomOrco^Q417H [2]; [4],~550 µM
same,EC50,CpomOrco^Q417H [2]; [5],~615 µM
same,h (Hill equation),CpomOrco^Q417H [2]; intracellular pH = 5.5,~ 4 ± 1.4
same,number of cells sensitive to VUAA1,"CpomOrco^Q417H [2]; intracellular pH = 5.5, GFP positive cells tested",6 out of 9
same,"Imax (whole-cell current amplitude, Hill fit)",CpomOrco^Q417H [2]; [4],~216 pA and ~ 216 ± 23 pA
same,h (Hill equation),CpomOrco^Q417H [2]; intracellular pH = 8.0,~ 5 ± 1.9
same,number of cells sensitive to VUAA1,"CpomOrco^Q417H [2]; intracellular pH = 8.0, GFP positive cells tested",11 out of 17
same,"Imax (whole-cell current amplitude, Hill fit)",CpomOrco^Q417H [2]; [5],~ 332 pA and ~ 332 ± 44 pA
